We go through seven molecules from US4806534A, “Therapeutically active flavonyl-1,4-dihydrophyridines” (Recordati S.A., Chemical & Pharmaceutical Company, priority 1985, dated 1989).

Series [1] is described as follows: LD50 acute toxicity in mice, i.p. and p.o. (Weil method). To be noted: mouse, in vivo. How it is done: The LD50 of the novel compounds of the invention was determined in mice, both i.p. and p.o., following the method described by C. S. Weil, Biometrics, 8, 249 (1952).
The test system of another series is urinary bladder. Put plainly: Cystometric recordings in conscious rats (urodynamic parameters). The format is in vivo. To be noted: conscious rat, perfusion started 60 min after administration. How it is done: The activity on the urodynamic parameters was detected by cystometric recordings, carried out in conscious rats, according to the method of […] et al, IRCS Medicinal Science, in press (1986), similar to that described by Sjogren, Acta Pharmacol. Toxicol., 39, 177 (1976). The intravesical pressure was recorded during a continuous infusion of saline (37° C.) into the urinary bladder at the constant rate of 0.15 ml/min. […] The perfusion started 60 minutes after administration of the compound.

Where two headings read alike, the source gives them in different places.

In the case of `COC(=O)C1=C(C)NC(C)=C(C(=O)OC)C1c1cccc2c(=O)c(C)c(-c3ccccc3)oc12` [i, Dimethyl 2,6-dimethyl-4-(3-methylflavon-8-yl)-1,4-dihydropyridine-3,5-dicarboxylate], the LD50 in series [1] (ip, read-out: LD50 i.p.) was 889 mg/kg; in series [1] (po, read-out: LD50 p.o.) it was greater than 3000 mg/kg. Besides, the “% Change BVC (bladder volume capacity)” value is “+18%” with urinary bladder (10 mg/kg p.o.) and “+21%” with urinary bladder (30 mg/kg p.o.). The “% Change MP (micturition pressure)” value with urinary bladder (10 mg/kg p.o.) is on record as -14%; with urinary bladder (30 mg/kg p.o.), -19%.

In the case of `CC1=C(C(=O)OCCCl)C(c2cccc3c(=O)c(C)c(-c4ccccc4)oc23)C(C(=O)OC(C)C)=C(C)N1` (stereo not drawn) [iii, Isopropyl beta-chloroethyl 2,6-dimethyl-4-(3-methylflavon-8-yl)-1,4-dihydropyridine-3,5-dicarboxylate], the median lethal dose (LD50) is greater than 1000 mg/kg in series [1] (ip, read-out: LD50 i.p.) and greater than 3000 mg/kg in series [1] (po, read-out: LD50 p.o.). Besides, in the series on urinary bladder (30 mg/kg p.o.), the “% Change BVC (bladder volume capacity)” value is reported as “+15%”. In addition, the “% Change MP (micturition pressure)” value in the series with urinary bladder (30 mg/kg p.o.) was -1%.

Regarding `CC1=C(C(=O)OCCN2CCCCC2)C(c2cccc3c(=O)c(C)c(-c4ccccc4)oc23)C(C(=O)OC(C)C)=C(C)N1` (centres unmarked) [iv, Isopropyl 2,N-piperidinoethyl 2,6-dimethyl-4-(3-methylflavon-8-yl)-1,4-dihydropyridine-3,5-dicarboxylate], the 50% lethal dose (LD50) is 222 mg/kg in series [1] (ip, read-out: LD50 i.p.) and greater than 3000 mg/kg in series [1] (po, read-out: LD50 p.o.).

As for `CC1=C(C(=O)OCCN(C)Cc2ccccc2)C(c2cccc3c(=O)c(C)c(-c4ccccc4)oc23)C(C(=O)OC(C)C)=C(C)N1` (centres unmarked) [v, isopropyl 2-(N-benzyl-N-methylamino)ethyl 2,6-dimethyl-4-(3-methylflavon-8-yl)-1,4-dihydropyridine-3,5-dicarboxylate], the 50% lethal dose (LD50) in series [1] (ip, read-out: LD50 i.p.) was 959 mg/kg; in series [1] (po, read-out: LD50 p.o.), greater than 3000 mg/kg. Besides, the “% Change BVC (bladder volume capacity)” value in the series on urinary bladder (10 mg/kg p.o.) is listed as “+19%”; in the series on urinary bladder (30 mg/kg p.o.), “+22%”. Further, the “% Change MP (micturition pressure)” value is -16% in the series with urinary bladder (10 mg/kg p.o.) and -23% in the series on urinary bladder (30 mg/kg p.o.).

Turning to `CC1=C(C(=O)OCCN(C)CCC(c2ccccc2)c2ccccc2)C(c2cccc3c(=O)c(C)c(-c4ccccc4)oc23)C(C(=O)OC(C)C)=C(C)N1` (centres unmarked) [vi, isopropyl 2-(N-(3,3-diphenylpropyl)-N-methylamino)ethyl 2,6-dimethyl-4-(3-methylflavon-8-yl)-1,4-dihydropyridine-3,5-dicarboxylate], the LD50 in series [1] (ip, read-out: LD50 i.p.) is greater than 1000 mg/kg; in series [1] (po, read-out: LD50 p.o.), greater than 3000 mg/kg. In addition, the “% Change BVC (bladder volume capacity)” value with urinary bladder (30 mg/kg p.o.) is “+31%”. The “% Change MP (micturition pressure)” value in the series on urinary bladder (30 mg/kg p.o.) is recorded as -1%.

Turning to `CCOC(=O)C1=C(C)NC(C)=C(C(=O)OC)C1c1cccc2c(=O)c(C)c(-c3ccccc3)oc12` (centres unmarked) [viii, Methyl ethyl 2,6-dimethyl-4-(3-methylflavon-8-yl)-1,4-dihydropyridine-3,5-dicarboxylate], the median lethal dose (LD50) was greater than 1000 mg/kg in series [1] (ip, read-out: LD50 i.p.) and greater than 3000 mg/kg in series [1] (po, read-out: LD50 p.o.).

For the molecule `C#CCOC(=O)C1=C(C)NC(C)=C(C(=O)OC)C1c1cccc2c(=O)c(C)c(-c3ccccc3)oc12` (centres unmarked) [xii, Methyl propargyl 2,6-dimethyl-4-(3-methylflavon-8-yl)-1,4-dihydropyridine-3,5-dicarboxylate], the 50% lethal dose (LD50) in series [1] (ip, read-out: LD50 i.p.) was 597 mg/kg; in series [1] (po, read-out: LD50 p.o.) it was greater than 3000 mg/kg.
